Data published in BindingDB's records for doi:10.1021/acs.jmedchem.6b01711 (University of Strathclyde, 2017).

What was measured:
[1] = Inhibition of alpha5 beta1 integrin (unknown origin) by cell migration assay
[2] = Inhibition of alpha5 beta1 integrin (unknown origin) by cell proliferation assay
[3] = Antagonist activity at integrin alpha2b beta3 receptor in citrated human platelet-rich plasma assessed as inhibition of ADP-induced platelet aggregation
[4] = Antagonist activity at integrin alpha2b beta3 receptor in citrated human platelet-rich plasma assessed as inhibition of ADP-induced platelets aggregation preincubated for 15 mins followed by ADP addition measured for 8 mins by aggregometric analysis

## O=c1c(C2NCCc3c2[nH]c2ccccc32)c(O)[nH]c(=S)n1Cc1ccc(F)cc1 (centres undefined)
[1]
  IC50: 15.5 µM
[2]
  IC50: 20.5 µM

## N=C(N)c1ccc2cc(OC(=O)c3ccc(N=C(N)N)cc3)ccc2c1 [4-Guanidino-benzoic acid 6-carbamimidoyl-naphthalen-2-yl ester(FUT-175)]
[3]
  IC50: 12 µM

## CCc1nn2c(=O)cc(N3CCNCC3)nc2s1
[4]
  IC50: 9.7 µM
